# Test results taken from patent US6831069B2, “Pyrrolo[2,3-d]pyrimidine nucleoside analogs” (priority 1999, dated 2004).
# Where “and” joins values, the source holds several entries; their conditions need not be identical. Equal values may be shown once.
# How the values were obtained:
# [1] = tested on: PMA/ionomycin stimulated T cell; test: Extracellular cytokine levels (ELISA) in PMA/ionomycin activated human T cells, 0 or 10 μM nucleoside; assay type: cell-based; conditions: 48 h, 5 human donors, of activated control level
# [2] = tested on: activated peripheral human T cells; test: Extracellular cytokine analyses (ELISA) in PMA-ION activated peripheral human T cells; assay type: cell-based; design: secreted IL-4, increase over activated control / IFNγ, decrease over activated control: concentration or dose not given beside the values; conditions: for heightened IL-4 production / reduced levels of secreted IFNγ: PMA-ION; for IFNγ, decrease over activated control / secreted IL-4, increase over activated control: 48 h PMA-ION
# activated human T cells [3] = test: T cell proliferation, [3H]-thymidine incorporation; assay type: cell-based; conditions: 48 h, read-out: peak inhibition of T cell proliferation
# activated human T cells [4] = test: MTT cell proliferation assay; assay type: cell-based; conditions: data not shown
# activated human T cells [5] = test: Analysis of cytokine mRNA (RT-PCR, Southern blot) in PMA-ION activated human T cells; assay type: cell-based
# PHA activated PBMC = test: ELISA spot assay, number of cytokine producing cells; assay type: cell-based, human; conditions: 10 μM
# CD3+ T cells = test: Viability by propidium iodide exclusion; assay type: cell-based, human
# Method: For determination of cytokine protein levels, T-cells (1×10^6 cells in a volume of 1 ml) were activated by the addition of 10 ng PMA plus 0.5 μg ionomycin (both from Calbiochem, La Jolla, Calif.) and incubated in 24 well plates in the presence of 0 to 20 μM nucleoside for up to 48 h at 37° C. and 5% CO2 in a humidified incubator. Following activation, supernatants were analysed for cell-derived cytokine production. For proliferation and viability studies, the protocol as above was modified to a 96 well-plate format using 0.2×10^6 cells in a volume of 0.2 ml and activation with 2 ng PMA and 0.1 μg ionomycin. In separate experiments, 5×10^6 T cells in 2 ml were activated with 20 ng PMA plus 1 μg ionomycin. Here total RNA was isolated from T cells following 6-24 h incubation and analyzed by RT-PCR to determine mRNA levels of various cytokines and inflammatory mediators. […]
# T cell proliferative responses were assessed by measuring [3H]-thymidine (1 μCi, ICN, Irvine, Calif.) incorporation for the last 16 h of each assay. Cells were harvested onto filters and DNA synthesis was measured following scintillation counting on a Wallac Betaplate counter (Perkin-Elmer/Wallac, Gaithersburg, Md.). Viability was assessed by propidium iodide (5 μg/ml) exclusion in untreated and nucleoside-treated human T cells stained with FITC-CD3 (Becton Dickinson, San Jose, Calif.). […]
# [6] = tested on: BALB/c and C57BL/6 lymph node CD4+ T cells; test: Generation of murine Th1 cells, IL-4 and IFNγ ELISA after restimulation; assay type: cell-based, mouse; design: murine IFNγ secretion upon restimulation: dose or concentration left out as unconfirmed; conditions: Th1 conditions (anti-CD3, IL-2, IFNγ, IL-12), both mouse strains
# BALB/c mice = conditions: mouse, in vivo
# [7] = 10 μM, 48 h, representative of five donors
# [8] = 10 μM, T cells of 16 RA patients
# [9] = 10 μM, T cells of 16 normal donors
# [10] = 10 μM, T cells from normal donors and RA patients
# [11] = 2, 5 or 10 μM, 6 h or 24 h, PMA-ION, representative of three donors
# [12] = pro-/anti-inflammatory mediator study, FIG. 18
structure (smiles),measurement,setting,value
"N=C(N)c1cn([C@@H]2O[C@H](CO)[C@@H](O)[C@H]2O)c2nc[nH]c(=O)c12 [ICN 10776, 7-β-D-ribofuranosyl-4-oxopyrrolo-[2,3-d]pyrimidine-5-carboxamidine]",enhanced activated IL-4 production,[1],498%±83
same,suppressed IFNγ,[1],43%±4
same,peak enhancement of PMA-ION-induced IL-4 level,[2]; [7],166%
same,peak enhancement of PMA-ION-induced IL-5 level,[2]; [7],77%
same,heightened IL-4 production,[2]; [8],192%
same,reduced levels of secreted IFNγ,[2]; [8],63%
same,heightened IL-4 production,[2]; [9],266%
same,reduced levels of secreted IFNγ,[2]; [9],43%
same,peak suppression of PMA-ION-induced IFNγ level,"[2]; 20 μM, 48 h",72%
same,peak suppression of PMA-ION-induced IL-2 level,"[2]; 20 μM, 48 h",62%
same,peak suppression of PMA-ION-induced TNFα level,"[2]; 20 μM, 48 h",78%
same,"IFNγ, decrease over activated control",[2]; CD4+ T cells,81%
same,"secreted IL-4, increase over activated control",[2]; CD4+ T cells,994%
same,"IFNγ, decrease over activated control",[2]; CD8+ T cells,37%
same,"secreted IL-4, increase over activated control",[2]; CD8+ T cells,228%
same,"IFNγ, decrease over activated control",[2]; total T cells,52%
same,"secreted IL-4, increase over activated control",[2]; total T cells,320%
same,inhibition at 20 µM,activated human T cells [3],99%
same,T cell proliferation (MTT),activated human T cells [4],dramatically inhibited T cell proliferation
same,IFNγ mRNA levels,activated human T cells [5]; [10],suppressed
same,IL-4 mRNA levels,activated human T cells [5]; [10],elevated
same,TNFα mRNA levels,activated human T cells [5]; [10],suppressed
same,IFNγ mRNA,activated human T cells [5]; [11],concomitant decrease
same,IL-4 mRNA,activated human T cells [5]; [11],increase in IL-4 mRNA
same,TNFα mRNA,activated human T cells [5]; [11],concomitant decrease
same,IFNγ mRNA,activated human T cells [5]; [12],suppression
same,IL-1β mRNA,activated human T cells [5]; [12],suppressed
same,IL-2 mRNA,activated human T cells [5]; [12],suppression
same,IL-4 mRNA,activated human T cells [5]; [12],enhancement
same,IL-6 mRNA,activated human T cells [5]; [12],suppressed
same,IL-10 mRNA,activated human T cells [5]; [12],enhancement of IL-10
same,TNFα mRNA,activated human T cells [5]; [12],suppression
same,c-myc expression,activated human T cells [5]; [12],suppression
same,inducible nitric oxide synthase (iNOS) expression,activated human T cells [5]; [12],reduction
same,number of IL-2-producing cells,PHA activated PBMC; 24 h,dramatic fall
same,number of IFNγ-producing cells,PHA activated PBMC; 48 h,dramatic fall
same,number of IL-4 producing cells,PHA activated PBMC; 48 h,substantial increase
same,number of IL-5 producing cells,PHA activated PBMC; 48 h,substantial increase
same,viability of resting CD3+ T cells,"CD3+ T cells; 20 μM, 48 h incubation, decrease from 95%",85%
same,viability of PMA-ION activated CD3+ T cells versus no nucleoside,"CD3+ T cells; 0.2 to 20 μM, 8 h, 24 h, 48 h",no sign difference
same,murine IL-4 secretion upon restimulation,[6]; co-incubation with 10 mM ICN 10776,elevated levels of IL-4
same,murine IFNγ secretion upon restimulation,[6]; co-incubation with ICN 10776,low levels of IFNγ
same,IFNγ mRNA levels,BALB/c mice,substantially reduced
same,mean decrease in serum nitrite levels,BALB/c mice,54% and 78%
same,murine IL-10 mRNA expression,BALB/c mice,greatly enhanced
